According to paper PMC5971061, “Differential Effects of Linkers on the Activity of Amphiphilic Tobramycin Antifungals” (Molecules : A Journal of Synthetic Chemistry and Natural …, 2018):
Values after ≈ are worked out from the molar mass of the structure shown.

Key:
[1] = system: Cryptococcus neoformans MYA-895; parameters: method as in PMID 26033722; settings: previously observed; cited from earlier work
[2] = system: C. albicans ATCC 10231 (strain A); experiment: Time-kill assay, strain A; type: cell-based, Candida albicans
Protocol: (§1) Time-kill assays were used to assess the inhibitory efficiency of 7b against three yeast strains, C. albicans ATCC 10231 (strain A), C. parapsilosis ATCC 22019 (strain J), and C. neoformans clinical isolate CN1. The protocol for time-kill assays followed methods previously described with minor modifications. Yeast cultures were grown overnight in YPD broth at 35 °C with shaking (200 rpm). A working stock of fungal cells was made by diluting cultures in RPMI 1640 medium to an OD600 of 0.125, approximately 1 × 10^6 CFU/mL. From the working stock, 100 μL of cells was added to 4.9 mL of RPMI 1640 medium in sterile culture tubes, making the starting fungal cell concentration […]. Compounds were then added to the fungal cells. The treatment conditions included sterile control, growth control, TOB (parent; negative control), voriconazole (VOR) at 1× MIC (positive control), 7b at 1× and 4× MIC. The treated fungal cultures were incubated at 35 °C with shaking (200 rpm) for 24 h. The samples were taken from the different treatments at regular time points (0, 3, 6, 9, 12, and 24 h.) and plated in duplicates. For each time point, cultures were vortexed, 100 μL of culture was aspirated, and 10-fold serial dilutions were made in sterile ddH2O. From the appropriate dilutions, 100 μL of fungal suspension was spread on PDA plates and incubated at 35 °C for 48 h before the colony counts were determined. At 24 h, 50 μL of 1 mM resazurin was added to the treatments and incubated at 35 °C with rotation for 2 h in the dark for visual inspection. Experiments were performed in duplicate.

[3] = system: C. parapsilosis ATCC 22019 (strain J); experiment: Time-kill assay, strain J; type: cell-based, Candida parapsilosis
Protocol: as §1

[4] = system: C. neoformans (strain CN1); experiment: Time-kill assay, CN1; type: cell-based, Cryptococcus neoformans
Protocol: as §1

[5] = system: C. albicans ATCC 10231 (strain A); experiment: Membrane permeabilization assay using propidium iodide staining; type: cell-based, Candida albicans; settings: 7b at 2× MIC or 4× MIC; TOB 31.3 μg/mL; 2 h treatment; compared to untreated cells
Protocol: A fresh culture of C. albicans ATCC 10231 (strain A) was prepared in 5 mL of YPD broth in a Falcon tube and was grown overnight at 35 °C at 200 rpm. […] TOB (31.3 μg/mL) was used as a negative control. The cell suspensions were then treated for 2 h at 35 °C with continuous agitation (200 rpm). To prepare a positive control sample, C. albicans ATCC 10231 (strain A) cells were killed by heat shock at 95 °C for 5 min as described by Ocampo and Barrientos. The cells were then centrifuged and resuspended in 500 μL of PBS buffer (pH 7.2 adjusted at room temperature). Subsequently, the cells were treated with propidium iodide (9 μM, final concentration) and incubated for 20 min at room temperature in the dark. […] The data were obtained from at least two independent experiments. The images were also post-processed, utilizing automatic contrast and brightness setting in Microsoft PowerPoint 2013 to eliminate background noise.

[6] = system: C. neoformans clinical isolates CN1-3; experiment: MIC across C. neoformans clinical isolates CN1-3; type: cell-based, Cryptococcus neoformans; settings: Cryptococcus neoformans
Protocol: The final concentrations of compounds 3, 4, 7a, 7b, 9, and 16, as well as that of TOB tested in this study ranged from 0.24–62.5 μg/mL. CAS was used as a positive control and the final concentrations tested for CAS ranged from 0.03–31.3 μg/mL. Briefly, overnight yeast cultures were grown in yeast peptone dextrose (YPD) broth and the cell density was adjusted to an OD600 of 0.12 (~1 × 10^6 CFU/mL) by using a spectrophotometer. Yeast cell suspensions were further diluted to achieve 1–5 × 10^3 CFU/mL in RPMI 1640 medium, and 100 μL of these yeast cells was added to 96-well microtiter plates containing RPMI 1640 medium and titrated compounds. Each test was performed in triplicate. The plates were incubated at 35 °C for 48 h.

| MIC [6] [µg/mL] | SMILES | MIC value [1] [µg/mL] | reduction of CFU ([2]; 15.6 μg/mL (4× MIC), after 6 h of treatment) [log10] | reduction of CFU ([2]; 1× MIC (7b 3.9 μg/mL; VOR 1.0 μg/mL), after 9 h of treatment) [log10] | decrease in CFU ([3]; 1.95 μg/mL (1× MIC), after 24 h of treatment) [log10] | effect on growth (time-kill, in words) ([3]; 7.8 μg/mL (4× MIC), after 24 h) | effect on growth (time-kill, in words) ([3]; 7b at 1.95 μg/mL (1× MIC)) | time to complete fungal cell death ([4]; 0.49 μg/mL (1× MIC)) [h] | reduction of CFU ([4]; 0.49 μg/mL (1× MIC), after 3 h of treatment) [log10] | time to complete fungal cell death ([4]; 1.95 μg/mL (4× MIC)) [h] | propidium iodide (PI) dye uptake (in words) [5] | effect on growth (time-kill, in words) ([2]; 24-h period, TOB 15.6 μg/mL, VOR 1× MIC 1.0 μg/mL) | effect on growth (time-kill, in words) ([3]; TOB 15.6 μg/mL, 24-h period) | effect on growth (time-kill, in words) ([4]; controls TOB 15.6 μg/mL and VOR 1× MIC, 24-h period) |
| --- | --- | --- | --- | --- | --- | --- | --- | --- | --- | --- | --- | --- | --- | --- |
| – | CCCCCCCCCCCCSC[C@H]1O[C@H](O[C@@H]2[C@@H](O)[C@H](O[C@H]3O[C@H](CN)[C@@H](O)C[C@H]3N)[C@@H](N)C[C@H]2N)[C@H](O)[C@@H](N)[C@@H]1O [Compound 3, O-3-Amino-3-deoxy-6-S-dodecyl-6-thio-α-D-glucopyranosyl-(1→6)-O-[2,6-diamino-2,3,6-trideoxy-α-D-ribo-hexopyranosyl-(1→4)]-2-deoxy-D-streptamine] | 1.95 (≈ 2.99 µM) | – | – | – | – | – | – | – | – | – | – | – | – |
| – | CCCCCCCCCCCCc1cn(C[C@H]2O[C@H](O[C@@H]3[C@@H](O)[C@H](O[C@H]4O[C@H](CN)[C@@H](O)C[C@H]4N)[C@@H](N)C[C@H]3N)[C@H](O)[C@@H](N)[C@@H]2O)nn1 [Compound 7b, O-3-Amino-3,6-dideoxy-6-(4-dodecyl-1H-1,2,3-triazol-1-yl)-α-D-glucopyranosyl-(1→6)-O-[2,6-diamino-2,3,6-trideoxy-α-D-ribo-hexopyranosyl-(1→4)]-2-deoxy-D-streptamine] | – | ≥ 2 | ≥ 2 | ≥ 2 | completely killed | fungistatic effect at 1.95 μg/mL (1× MIC) only for the first 3 h | 6 | ≥ 2 | 3 | larger influx of PI dye | – | – | – |
| > 62.5 | NC[C@H]1O[C@H](O[C@H]2[C@H](O)[C@@H](O[C@H]3O[C@H](CO)[C@@H](O)[C@H](N)[C@H]3O)[C@H](N)C[C@@H]2N)[C@H](N)C[C@@H]1O [TOB, tobramycin] | – | – | – | – | – | – | – | – | – | negligible staining | did not affect the growth | did not affect the growth | little to no growth inhibitory effect |
